What was measured:
Test in all cases: combination Emax (second highest fraction inhibited in the dose matrix, 72 h); higher = more inhibition; extreme values may be limits of the assay
TK10 (Kidney Carcinoma) = system: TK10 (Kidney Carcinoma)
Summary of the method: (§1)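 Cell lines grown in DMEM/F12 or RPMI with 10% FBS were plated in 1536-well plates and held 24 hours at 37°C, 5% CO2 before 72 hours of exposure to two-drug dose matrices, with DMSO typically at 0.2%. CellTiter-Glo 2.0 luminescence gave viability, which was converted to inhibition. Vehicle wells were set to 0 and blank wells to 1. Combination Emax is the second-highest inhibition in the matrix, and Bliss excess is the observed combination effect minus the expected EA + EB − EA·EB, where EA and EB are the single-agent effects.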

EW-24 (Ewing's Sarcoma) = system: EW-24 (Ewing's Sarcoma)
Summary of the method: as §1

[1] = system: NCI-H358 (Lung Adenocarcinoma)
Summary of the method: as §1

[2] = system: OSC-20 (Oral Cavity Carcinoma)
Summary of the method: as §1

[3] = system: OE19 (Esophageal Adenocarcinoma)
Summary of the method: as §1

[4] = system: SW13 (Other Solid Carcinomas)
Summary of the method: as §1

[5] = system: C-4-I (Cervical Carcinoma)
Summary of the method: as §1

NB69 (Neuroblastoma) = system: NB69 (Neuroblastoma)
Summary of the method: as §1

[6] = system: KMOE-2 (Acute Myeloid Leukemia)
Summary of the method: as §1

ACHN (Kidney Carcinoma) = system: ACHN (Kidney Carcinoma)
Summary of the method: as §1

[7] = system: Caov-4 (Ovarian Carcinoma)
Summary of the method: as §1

[8] = system: KYSE-450 (Esophageal Squamous Cell Carcinoma)
Summary of the method: as §1

[9] = system: NUGC-3 (Gastric Carcinoma)
Summary of the method: as §1

[10] = system: EFM-19 (Breast Carcinoma)
Summary of the method: as §1

UACC-62 (Melanoma) = system: UACC-62 (Melanoma)
Summary of the method: as §1

PWR-1E (Non-Cancerous) = system: PWR-1E (Non-Cancerous)
Summary of the method: as §1

[11] = system: NCI-H727 (Other Solid Carcinomas)
Summary of the method: as §1

[12] = system: MIA-PaCa-2 (Pancreatic Carcinoma)
Summary of the method: as §1

[13] = system: VA-ES-BJ (Other Solid Carcinomas)
Summary of the method: as §1

[14] = system: RF-48 (B-Cell Non-Hodgkin's Lymphoma)
Summary of the method: as §1

Structure (SMILES)	combination Emax (TK10 (Kidney Carcinoma))	combination Emax (EW-24 (Ewing's Sarcoma))	combination Emax [1]	combination Emax [2]	combination Emax [3]	combination Emax [4]	combination Emax [5]	combination Emax (NB69 (Neuroblastoma))	combination Emax [6]	combination Emax (ACHN (Kidney Carcinoma))	combination Emax [7]	combination Emax [8]	combination Emax [9]	combination Emax [10]	combination Emax (UACC-62 (Melanoma))	combination Emax (PWR-1E (Non-Cancerous))	combination Emax [11]	combination Emax [12]	combination Emax [13]	combination Emax [14]
Cc1c2c(nn1C)CSCc1cc(n(C)n1)CSc1cc(c3ccccc3c1)OCCCc1c(C(=O)O)n(C)c3c-2c(Cl)ccc13 [AZD5991] + C[C@@H](Nc1cc(F)cc(F)c1)c1cc(C(=O)N(C)C)cc2c(=O)cc(N3CCOCC3)oc12 [AZD8186] (first compound max 1 µM, 7x7, partner max 3 µM)	0.419	0.291	0.282	0.237	0.49	0.947	0.985	0.894	0.644	0.342	0.507	0.234	0.209	0.586	0.934	0.268	0.274	0.336	0.322	0.365
Cc1c2c(nn1C)CSCc1cc(n(C)n1)CSc1cc(c3ccccc3c1)OCCCc1c(C(=O)O)n(C)c3c-2c(Cl)ccc13 [AZD5991] + Cc1cc2ncnn2cc1Nc1ncc2c(n1)n(C1CCOCC1)c(=O)n2C [AZD7648] (first compound max 1 µM, 7x7, partner max 10 µM)	0.385	0.258	0.331	0.257	0.424	0.861	1	0.779	0.74	0.246	0.57	0.268	0.428	0.629	0.859	0.247	0.277	0.354	0.221	0.262
Cc1c2c(nn1C)CSCc1cc(n(C)n1)CSc1cc(c3ccccc3c1)OCCCc1c(C(=O)O)n(C)c3c-2c(Cl)ccc13 [AZD5991] + Cn1cnc2c(F)c(Nc3ccc(Br)cc3Cl)c(C(=O)NOCCO)cc21 [Selumetinib] (first compound max 1 µM, 7x7, partner max 3 µM)	0.454	0.214	0.485	0.276	0.49	0.828	1	0.982	1	0.4	0.856	0.331	0.355	0.282	0.998	0.21	0.65	0.623	0.184	0.21
C[C@@H]1COCCN1c1cc(C2([S@](C)(=N)=O)CC2)nc(-c2ccnc3[nH]ccc23)n1 [AZD6738] + O=C(c1cc(Cc2n[nH]c(=O)c3ccccc23)ccc1F)N1CCN(C(=O)C2CC2)CC1 [Olaparib] (first compound max 10 µM, 7x7, partner max 10 µM)	0.471	0.567	0.544	0.387	0.55	0.451	0.875	0.94	0.616	0.988	0.969	0.608	0.778	0.439	0.509	0.842	0.384	0.708	0.64	0.56
